Assay results reported in article PMC3776838, “Detection of Phospho-Sites Generated by Protein Kinase CK2 in CFTR: Mechanistic Aspects of Thr1471 Phosphorylation” (PLoS ONE, 2013).
Entries after “also recorded” stand apart in the source; their conditions may differ.

How the values were obtained:
[1] = tested on: WT, WT/T1471A or Phe508delCFTR; experiment: CFTR bands B and C in BHK cells exposed to CHX or Brefeldin A; type: cell-based, human
Method: Baby hamster kidney cells (BHK) stably expressing human CFTR (hCFTR) either wild type (WT), or Phe508del, or WT T1471A were growth to reach 70–80% confluency. After 2 h-long treatment with 100 µg/mL cyclohexamide, cells were washed with PBS and incubated with 2 µM CX4945 or its vehicle for the indicated time. At each time-point cells were washed with ice-cold PBS, scraped from the plates, pelleted by centrifugation (1200 g for 5 min at room tempertaure) and lysed in a buffer containing 1% (v/v) Nonidet P40, 50 mM Tris/HCl (pH 7.5) and 150 mM NaCl with fresh protease inhibitor tablets (Roche), 1 µM Okadaic acid (Alexis) and phosphatases inhibitors cocktails 2 and 3 (Sigma). Cells were lysed by incubation on ice for 30 min and then the lysates were cleared by centrifugation at 17000 g for 30 min at 4°C. The supernatant was collected and subjected to protein concentration quantification.
Western blot analysis was performed as described in [14] using a modified Laemmli buffer containing 105 mM dithiothreitol (final concentration) to enhance the solubilization of CFTR. 20–30 µg of total proteins were separated on 4–12% precast NuPage® Bis-Tris gradient gels (Invitrogen) according to the manufacturer’s instructions and transferred on to Optitran BA-S 83 nitrocellulose membranes (Whatman) with a semi-dry blotter (Biometra) for 1 h at 150 mA. Membranes were saturated for 1 h with 5% skimmed milk in Tris-buffered saline (TBS) containing 0.2% Tween 20. Immunoblots were developed by enhanced chemiluminescence, detected on Kodak Image Station 440 cf and analyzed by the Kodak 1D image software. Tubulin was used as loading control.
Supplementary file pone.0074232.s004.tif: Figure S4 BHK cells expressing WT, WT/T1471A or Phe508delCFTR were exposed to either cycloheximide (CHX, 100 µg/ml) or Brefeldin A (BFA, 200 ng/ml). […] [a] Glozman R, Okiyoneda T, Mulvihill CM, Rini JM, Barriere H, Lukacs GL (2009) N-glycans are direct determinants of CFTR folding and stability in secretory and endocytic membrane traffic. J. Cell Biol. 184, 847–862. (TIF) Click here for additional data file.

[2] = target: T1, CK2 holoenzyme (CK2 α2β2) (Homo sapiens, UniProt P67870+P68400); experiment: Phosphorylation of CFTR C-terminal peptides by CK2 holoenzyme (33P incorporation); type: biochemical; details: pH 7.5, 50 µM [γ-33P]ATP, 10 min, 37°C; for Kprime / Khalf / Vmax: Figure 3C, allosteric (sigmoidal) model, GraphPad Prism; for Kprime: Kprime = Khalf^h, not equal to Km unless h = 1; for phosphorylation by CK2 holoenzyme: Tricine-SDS-PAGE, autoradiography, Figures 2A and 3
T1 construct: made in house; host or cells: Escherichia coli
Method: (§1) Human CK2, both the α-catalytic subunit and the α2β2-holoenzyme were expressed in Escherichia coli. CK2α2β2 holoenzyme was reconstituted by mixing pellets expressing CK2α and CK2β independently. Cells were lysed by French press at 4°C in Tris/HCl 25 mM, pH 8, NaCl 0.4 M, DTT 1 mM, proteases inhibitors cocktail (Roche). The soluble fraction obtained after 30 min centrifugation at 15000 g was applied on Heparin-Sepharose and the proteins were separated using a gradient elution (0.4–1 M NaCl). Fractions containing CK2 were further purified by size-exclusion chromatography using a buffer composed by Tris/HCl 25 mM, pH 8, NaCl 0.5 M, DTT 1 mM.
(§2) Recombinant mouse full length CFTR (mCFTR) was cloned, expressed and purified as described in [20]. A 42-mer peptide reproducing the C-terminal tail of human CFTR (residues 1439–1480) was expressed in Escherichia coli with an N-terminal His tag and purified using affinity chromatography (Talon) followed by cleavage of the His tag by thrombin. Further details are given in the Material S1.
Synthetic peptide encompassing the last 20 residues of human CFTR C-terminal domain ([…], residues 1461–1480) was obtained by solid phase peptide synthesis method using a multiple peptide synthesizer (SyroII, MultiSynTech GmbH) on p-Benzyloxybenzyl alcohol resin (100–200 mesh) HMP resin (Novabiochem). The fluoren-9-ylmethoxycarbonyl (Fmoc) strategy was used throughout the peptide chain assembly, utilizing O-(7-Azabenzotriazol-1-yl)-N,N,N′,N′-tetramethyluronium hexafluorophosphate (HATU) as coupling reagent. The side-chain protected amino acid building blocks used were: N-α-Fmoc-Nω-(2,2,4,6,7-pentamethyldihydrobenzofuran-5-sulfonyl)-L-arginine, N-α-Fmoc-γ-tert-butyl-L-glutamic acid, N-α-Fmoc-β-tert-butyl-L-aspartic acid, N-α-Fmoc-O-tert-butyl-L-threonine, N-α-Fmoc-Nε-(tert-butyloxycarbonyl)-L-lysine, N-α-Fmoc-N-γ-trityl-L-glutamine. Cleavage of the peptide was performed by reacting the peptidyl-resin with a mixture containing TFA/ethanedithiol/phenol 5% for 2.5 h. Crude peptide were purified by a preparative reverse phase HPLC. Molecular mass of the peptide were confirmed by mass spectroscopy on a MALDI TOF-TOF mass spectrometer (model 4800– AB Sciex). The purity (>90%) was evaluated by analytical reverse phase HPLC.
(§3) Peptides derived from human CFTR C-terminal region were phosphorylated by incubation in a 20-µl volume containing 50 mM Tris/HCl, pH 7.5, 10 mM MgCl2, 100 mM NaCl, and 50 µM [γ-^33P]ATP (specific radioactivity 1,500–2,000 cpm/pmol). The reaction was started by the addition of the indicated protein kinases. The reaction mixtures were incubated for 10 minutes at 37°C and stopped by the addition of 2× concentrated Tricine sample buffer (450 mM Tris HCl, pH 8.45, 12% (v/v) glycerol, 4% (w/v) SDS, 0.0025% (w/v) Coomassie Blue G, 0.0025% (w/v) Phenol Red and 105 mM DTT). Samples were separated on Tricine-SDS-PAGE following the Schägger’s protocol in a running buffer composed of 100 mM Tris/HCl, pH 8.3, 100 mM Tricine, 0.1% (w/v) SDS. ^33P incorporation was evaluated by gels autoradiography on PerkinElmer’s Cyclone Plus Storage Phosphor System. Initial rate data were analyzed with the program Prism (GraphPad Software, La Jolla, CA).

[3] = tested on: CK2 α-catalytic subunit; experiment: Phosphorylation of the 42-mer CFTR peptide by isolated CK2 α-catalytic subunit; type: biochemical, human; details: 0.4 µg peptide, pH 7.5, 50 µM [γ-33P]ATP, 10 min, 37°C, autoradiography, Figure 2A
Method: as §1
Recombinant mouse full length CFTR (mCFTR) was cloned, expressed and purified as described in [20]. […]
(§4) Peptides derived from human CFTR C-terminal region were phosphorylated by incubation in a 20-µl volume containing 50 mM Tris/HCl, pH 7.5, 10 mM MgCl2, 100 mM NaCl, and 50 µM [γ-^33P]ATP (specific radioactivity 1,500–2,000 cpm/pmol). […] Samples were separated on Tricine-SDS-PAGE following the Schägger’s protocol in a running buffer composed of 100 mM Tris/HCl, pH 8.3, 100 mM Tricine, 0.1% (w/v) SDS. ^33P incorporation was evaluated by gels autoradiography on PerkinElmer’s Cyclone Plus Storage Phosphor System. Initial rate data were analyzed with the program Prism (GraphPad Software, La Jolla, CA).

[4] = tested on: PLK2; experiment: Phosphorylation of the 42-mer CFTR peptide by PLK2; type: biochemical; details: same conditions as with CK2 holoenzyme, Figure 2B
Description: (§5) CK1 isoforms and PLK 2 and 3 were obtained as described in [21], and [22], respectively.
as §2
as §4, with “cpm/pmol). The reaction was started by the addition of the indicated protein kinases.” for “cpm/pmol).”

[5] = tested on: PLK3; experiment: Phosphorylation of the 42-mer CFTR peptide by PLK3; type: biochemical; details: same conditions as with CK2 holoenzyme, Figure 2B
Description: as §5, §2
as §4, with “cpm/pmol). The reaction was started by the addition of the indicated protein kinases.” for “cpm/pmol).”

[6] = tested on: CK1; experiment: Phosphorylation of the 42 amino acid CFTR peptide by CK1; type: biochemical; details: not shown; listed as 42 amino acid peptide
Description: as §5, §2
as §4, with “cpm/pmol). The reaction was started by the addition of the indicated protein kinases.” for “cpm/pmol).”

[7] = tested on: GCK/FAM20C; experiment: Phosphorylation of the 42 amino acid CFTR peptide by Golgi apparatus casein kinase; type: biochemical; details: not shown; listed as 42 amino acid peptide
Method: as §2, §3

[8] = CHX 100 µg/ml, 2 h, Figures 5 and S4
[9] = listed as 42 amino acid peptide
[10] = listed as 42 amino acid-long recombinant fragment

T1 sequence (P68400 whole entry): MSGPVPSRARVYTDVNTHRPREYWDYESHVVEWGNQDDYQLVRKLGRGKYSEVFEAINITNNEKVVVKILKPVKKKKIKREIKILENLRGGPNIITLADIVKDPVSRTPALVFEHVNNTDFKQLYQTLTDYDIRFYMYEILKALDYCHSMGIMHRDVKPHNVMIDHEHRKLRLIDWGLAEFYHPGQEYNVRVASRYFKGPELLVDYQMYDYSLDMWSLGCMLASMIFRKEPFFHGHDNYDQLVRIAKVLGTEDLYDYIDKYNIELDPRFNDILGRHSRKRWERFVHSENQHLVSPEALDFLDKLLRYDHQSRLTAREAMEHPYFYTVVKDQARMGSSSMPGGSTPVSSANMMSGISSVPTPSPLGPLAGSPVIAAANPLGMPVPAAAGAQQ
T1 sequence (P67870 whole entry): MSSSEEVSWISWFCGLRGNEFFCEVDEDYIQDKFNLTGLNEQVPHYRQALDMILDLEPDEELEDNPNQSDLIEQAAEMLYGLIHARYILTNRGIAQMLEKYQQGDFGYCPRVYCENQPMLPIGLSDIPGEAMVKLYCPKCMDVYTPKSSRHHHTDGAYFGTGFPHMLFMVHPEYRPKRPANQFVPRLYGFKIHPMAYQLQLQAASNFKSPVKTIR

Compound: C[C@@H]1C[C@@H]([C@H](O)CC2CC(=O)NC(=O)C2)C(=O)[C@@H](C)C1 [CHX, cycloheximide]
- effect on CFTR band B (immature core-glycosylated, ER-resident) [1, 8]: fast and almost complete disappearance of band B; also recorded: attenuation/disappearance of the ER-resident band B of CFTR
- effect on CFTR band C (mature fully glycosylated) [1, 8]: much slower; also recorded: the fully mature band C is not affected by CHX treatment

Compound: CFTR[1439-1480]: 42-mer peptide reproducing the C-terminal tail of human CFTR (residues 1439–1480), expressed in Escherichia coli with N-terminal His tag, cleaved by thrombin (QAISPSDRVKLFPHRNSSKCKSKPQIAALKEETEEEVQDTRL; left off: His tag, N-terminal, cleaved)
- Kprime [2]: 3.13 µM
- Khalf [2]: 1.49 µM
- Vmax [2]: 90.5 DLUx10^-6
- phosphorylation by CK2 holoenzyme [2, 9]: readily phosphorylated at Thr1471
- phosphorylation by CK2 holoenzyme [2, 10]: readily phosphorylated by CK2 holoenzyme
- phosphorylation by CK2 holoenzyme ([2]; listed as recombinant fragment of human CFTR): readily phosphorylated, with favorable kinetics, at Thr1471 by CK2 holoenzyme
- phosphorylation by isolated CK2 catalytic α-subunit [3, 9]: neither by its isolated catalytic subunit
- phosphorylation by isolated CK2 catalytic α-subunit [3, 10]: not by the isolated catalytic α-subunit alone
- phosphorylation by PLK2 [4]: very low as compared to that obtained with CK2 holoenzyme
- phosphorylation by PLK2 [4, 9]: nor by other acidophilic Ser/Thr kinases (CK1, PLK2/3, GCK/FAM20C); also recorded: a weak phosphorylation was observed
- phosphorylation by PLK3 [5]: very low as compared to that obtained with CK2 holoenzyme
- phosphorylation by PLK3 [5, 9]: nor by other acidophilic Ser/Thr kinases (CK1, PLK2/3, GCK/FAM20C); also recorded: a weak phosphorylation was observed
- phosphorylation by CK1 [6]: nor by other acidophilic Ser/Thr kinases (CK1, PLK2/3, GCK/FAM20C); also recorded: unable to phosphorylate the 42 amino acid peptide
- phosphorylation by GCK/FAM20C [7]: nor by other acidophilic Ser/Thr kinases (CK1, PLK2/3, GCK/FAM20C); also recorded: unable to phosphorylate the 42 amino acid peptide

Compound: C[C@H]1CCC/C=C/[C@@H]2C[C@H](O)C[C@H]2[C@H](O)/C=C/C(=O)O1 [Brefeldin A]
- effect on CFTR band B (immature core-glycosylated, ER-resident) ([1]; Brefeldin A 200 ng/ml, Figure S4): opposite effects on the fate of band B; also recorded: band B increases

Compound: KPQIAALKEETEEEVQDTRL [CFTR[1461-1480], Synthetic peptide encompassing the last 20 residues of human CFTR C-terminal domain]
- Kprime [2]: 1430 µM
- Khalf [2]: 1290 µM
- Vmax [2]: 1477 DLUx10^-6
- phosphorylation by CK2 holoenzyme ([2]; listed as shorter synthetic peptide encompassing Thr1471): also phosphorylated by CK2 albeit with lower efficiency
- phosphorylation by CK2 holoenzyme ([2]; listed as synthetic peptide encompassing the last 20 residues of hCFTR): can also be phosphorylated by CK2 holoenzyme, although much less efficiently
